Laboratory results as given in the NIST ThermoML archive (doi:10.1016/j.jct.2018.08.034).
“And” between values parts separate entries of the source, which are not always exact repeats. Identical values can stand only once.

Legend:
[1] = Crystal
[2] = Molar enthalpy of transition or fusion; settings: Crystal; DSC

c1ccc2cc3ccccc3cc2c1 [anthracene]
[1]
Settings | vapor or sublimation pressure
343.29 K | 0.000192 kPa
343.3 K | 0.000182 kPa
343.31 K | 0.000197 kPa
345.76 K | 0.000235 kPa and 0.00024 kPa
345.79 K | 0.000247 kPa
348.21 K | 0.000317 kPa and 0.000305 kPa
348.27 K | 0.000297 kPa
350.75 K | 0.000392 kPa
350.76 K | 0.000401 kPa
350.79 K | 0.000384 kPa
353.04 K | 0.000479 kPa and 0.000485 kPa
353.19 K | 0.000498 kPa
355.68 K | 0.00063 kPa
355.73 K | 0.000626 kPa
355.74 K | 0.000623 kPa
358.14 K | 0.000799 kPa
358.15 K | 0.000784 kPa
358.18 K | 0.000798 kPa
360.63 K | 0.001 kPa
360.66 K | 0.000992 kPa
360.68 K | 0.000998 kPa
362.95 K | 0.00123 kPa and 0.001232 kPa
363.13 K | 0.001244 kPa
365.54 K | 0.00155 kPa
365.55 K | 0.001551 kPa
365.56 K | 0.001562 kPa
367.97 K | 0.001927 kPa and 0.001947 kPa
367.98 K | 0.001941 kPa
370.43 K | 0.002398 kPa
370.44 K | 0.002418 kPa and 0.002409 kPa
372.85 K | 0.00298 kPa
372.89 K | 0.002973 kPa and 0.002978 kPa

c1ccc2cc3sccc3cc2c1 [naphtho[2,3-b]thiophene]
Settings | Molar enthalpy of transition or fusion [kcal/mol]
[2] | 5.09

Settings | Normal melting temperature [°C]
[1], DTA | 188.6
